Experimental data as given in PubChem BioAssay AID248 (DTP/NCI, 2004).
Several values for one entry are separate records, joined by “and”; a condition that tells them apart may be missing. Equal values may be shown once. Inconclusive results and toxic doses are left out. Rule as the data show it: active = T/C of 150% or more; inactive = T/C below 125%.

System: L1210 leukemia ip in BDF1 mice, survival T/C
Experiment: NCI In Vivo Anticancer Drug Screen. Data for tumor model L1210 Leukemia (intraperitoneal) in B6D2F1 (BDF1) mice
Conditions: endpoint: mean survival time, higher = longer survival
Summary of the method: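 In this screen, tumor-bearing mice given compound are compared to those given vehicle, and their survival values are reported as a treated-to-control quotient.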

[1] = dose: 100.0 mg/kg/injection, schedule: Q01DX009 (ip), vehicle: saline
[2] = dose: 100.0 mg/kg/injection, schedule: Q04DX003 (ip), vehicle: saline with Tween-80
[3] = dose: 200.0 mg/kg/injection, schedule: Q01DX009 (ip), vehicle: saline
[4] = dose: 100.0 mg/kg/injection, schedule: Q04DX003 (ip), vehicle: saline
[5] = dose: 50.0 mg/kg/injection, schedule: Q01DX009 (ip), vehicle: Klucel (hydroxypropylcellulose) (HPC)
[6] = dose: 100.0 mg/kg/injection, schedule: Q01DX009 (ip), vehicle: Klucel (hydroxypropylcellulose) (HPC)
[7] = dose: 100.0 mg/kg/injection, schedule: Q04DX002 (ip), vehicle: Klucel (hydroxypropylcellulose) (HPC)
[8] = dose: 200.0 mg/kg/injection, schedule: Q04DX002 (ip), vehicle: Klucel (hydroxypropylcellulose) (HPC)
[9] = dose: 400.0 mg/kg/injection, schedule: Q04DX002 (ip), vehicle: Klucel (hydroxypropylcellulose) (HPC)
[10] = dose: 25.0 mg/kg/injection, schedule: Q01DX009 (ip), vehicle: saline
[11] = dose: 25.0 mg/kg/injection, schedule: Q01DX005 (ip), vehicle: other
[12] = dose: 50.0 mg/kg/injection, schedule: Q01DX005 (ip), vehicle: other
[13] = dose: 100.0 mg/kg/injection, schedule: Q01DX005 (ip), vehicle: other
[14] = dose: 200.0 mg/kg/injection, schedule: Q01DX005 (ip), vehicle: other

Measured: T/C

CCOC(=O)c1ccc(NC(=S)NC(=O)c2cccc([N+](=O)[O-])c2)cc1
inactive: dose: 50.0 mg/kg/injection, schedule: Q01DX001 (ip), vehicle: saline with Tween-80 88 % of control | dose: 100.0 mg/kg/injection, schedule: Q01DX001 (ip), vehicle: saline with Tween-80 88 % of control | [1] 99 % of control and 86 % of control | dose: 100.0 mg/kg/injection, schedule: Q04DX002 (ip), vehicle: alcohol 93 % of control | [2] 105 % of control | dose: 200.0 mg/kg/injection, schedule: Q01DX001 (ip), vehicle: saline with Tween-80 104 % of control and 87 % of control | [3] 93 % of control and 101 % of control | dose: 200.0 mg/kg/injection, schedule: Q04DX002 (ip), vehicle: alcohol 90 % of control | dose: 200.0 mg/kg/injection, schedule: Q04DX003 (ip), vehicle: saline with Tween-80 97 % of control | dose: 400.0 mg/kg/injection, schedule: Q01DX001 (ip), vehicle: saline with Tween-80 106 % of control | dose: 400.0 mg/kg/injection, schedule: Q04DX002 (ip), vehicle: alcohol 90 % of control | dose: 400.0 mg/kg/injection, schedule: Q04DX003 (ip), vehicle: saline with Tween-80 95 % of control

O=C(C[n+]1ccccc1Cc1ccccc1)c1ccccc1
inactive: [2] 94 % of control | [4] 102 % of control

CNc1ncc2nc(C)c(=O)n(C)c2n1
inactive: [5] 98 % of control | [6] 95 % of control

O=C1C2CCN(CC2)C1CNC1(c2ccccc2)CCCCC1 (centres undefined)
inactive: dose: 50.0 mg/kg/injection, schedule: Q01DX001 (ip), vehicle: Klucel (hydroxypropylcellulose) (HPC) 98 % of control | dose: 100.0 mg/kg/injection, schedule: Q01DX001 (ip), vehicle: Klucel (hydroxypropylcellulose) (HPC) 92 % of control | dose: 200.0 mg/kg/injection, schedule: Q01DX001 (ip), vehicle: Klucel (hydroxypropylcellulose) (HPC) 92 % of control

O=C1NC2Cc3ccccc3CC12 (centres undefined)
inactive: [7] 102 % of control | [8] 100 % of control | [9] 86 % of control

Cc1n(CCBr)c([N+](=O)[O-])c[n+]1C1N=C(c2ccccc2)c2cc(Cl)ccc2N(C)C1=O (centres undefined)
inactive: [5] 89 % of control | [6] 89 % of control | dose: 200.0 mg/kg/injection, schedule: Q01DX009 (ip), vehicle: Klucel (hydroxypropylcellulose) (HPC) 86 % of control

COc1ccc2[nH]c3cc(Cl)ccc3c(=O)c2c1
inactive: dose: 100.0 mg/kg/injection, schedule: Q01DX009 (ip), vehicle: saline with Tween-80 91 % of control | dose: 200.0 mg/kg/injection, schedule: Q01DX009 (ip), vehicle: saline with Tween-80 88 % of control | dose: 400.0 mg/kg/injection, schedule: Q01DX009 (ip), vehicle: saline with Tween-80 86 % of control

O=C(O)C(O)C(O)C(=O)O.O=C(O)C(O)C(O)C(=O)O.[O]=[V].[O]=[V] (centres undefined)
inactive: dose: 6.25 mg/kg/injection, schedule: Q01DX009 (ip), vehicle: saline 101 % of control and 110 % of control | dose: 6.25 mg/kg/injection, schedule: Q04DX003 (ip), vehicle: saline 92 % of control and 106 % of control | dose: 12.5 mg/kg/injection, schedule: Q01DX009 (ip), vehicle: saline 101 % of control and 96 % of control | dose: 12.5 mg/kg/injection, schedule: Q04DX003 (ip), vehicle: saline 92 % of control and 96 % of control | [10] 98 % of control and 94 % of control | dose: 25.0 mg/kg/injection, schedule: Q04DX003 (ip), vehicle: saline 96 % of control and 97 % of control and 109 % of control | dose: 50.0 mg/kg/injection, schedule: Q04DX003 (ip), vehicle: saline 104 % of control | dose: 100.0 mg/kg/injection, schedule: Q04DX003 (ip), vehicle: saline sonified 91 % of control

CN(N)P(=O)(Nc1ccccc1)Nc1ccccc1
inactive: dose: 50.0 mg/kg/injection, schedule: Q04DX003 (ip), vehicle: Klucel (hydroxypropylcellulose) (HPC) 98 % of control | dose: 75.0 mg/kg/injection, schedule: Q01DX009 (ip), vehicle: Klucel (hydroxypropylcellulose) (HPC) 102 % of control | dose: 100.0 mg/kg/injection, schedule: Q04DX003 (ip), vehicle: Klucel (hydroxypropylcellulose) (HPC) 91 % of control | dose: 150.0 mg/kg/injection, schedule: Q01DX009 (ip), vehicle: Klucel (hydroxypropylcellulose) (HPC) 115 % of control | dose: 200.0 mg/kg/injection, schedule: Q04DX003 (ip), vehicle: Klucel (hydroxypropylcellulose) (HPC) 96 % of control | dose: 300.0 mg/kg/injection, schedule: Q01DX009 (ip), vehicle: Klucel (hydroxypropylcellulose) (HPC) 100 % of control

COc1ccc(OC)c(/C=C2\SC(=S)N(C3OC(COC(C)=O)C(OC(C)=O)C(OC(C)=O)C3OC(C)=O)C2=O)c1 (centres undefined)
inactive: [11] 101 % of control | [12] 108 % of control | [13] 101 % of control | [14] 97 % of control | dose: 400.0 mg/kg/injection, schedule: Q01DX005 (ip), vehicle: other 104 % of control

Nc1nc(N)c2nonc2n1
inactive: dose: 12.5 mg/kg/injection, schedule: Q01DX005 (ip), vehicle: other 97 % of control | [11] 90 % of control | [12] 92 % of control | [13] 89 % of control | [14] 92 % of control

N/N=C1\c2ccccc2-c2ccc([N+](=O)[O-])cc21
inactive: dose: 100.0 mg/kg/injection, schedule: Q01DX001 (ip), vehicle: carboxymethylcellulose (CMC) 95 % of control | dose: 200.0 mg/kg/injection, schedule: Q01DX001 (ip), vehicle: carboxymethylcellulose (CMC) 93 % of control | dose: 400.0 mg/kg/injection, schedule: Q01DX001 (ip), vehicle: carboxymethylcellulose (CMC) 95 % of control

CC1(C)N=C(N)N=C(N)N1c1ccccc1F
inactive: [10] 93 % of control | dose: 38.0 mg/kg/injection, schedule: Q01DX001 (ip), vehicle: saline 101 % of control | dose: 50.0 mg/kg/injection, schedule: Q01DX009 (ip), vehicle: saline 91 % of control | dose: 75.0 mg/kg/injection, schedule: Q01DX001 (ip), vehicle: saline 101 % of control | dose: 75.0 mg/kg/injection, schedule: Q01DX009 (ip), vehicle: saline 110 % of control

C=CCNC(=O)/C=C/C(=O)O
inactive: [1] 95 % of control | [3] 93 % of control

[O]=[Hf]=[O]
inactive: [4] 96 % of control | dose: 200.0 mg/kg/injection, schedule: Q04DX003 (ip), vehicle: saline 92 % of control | dose: 400.0 mg/kg/injection, schedule: Q04DX003 (ip), vehicle: saline 97 % of control

Cc1ccccc1Nc1n[nH]c(=O)n1-c1ccccc1C
inactive: dose: 100.0 mg/kg/injection, schedule: Q04DX003 (ip), vehicle: carboxymethylcellulose (CMC) 98 % of control | dose: 200.0 mg/kg/injection, schedule: Q04DX003 (ip), vehicle: carboxymethylcellulose (CMC) 90 % of control | dose: 400.0 mg/kg/injection, schedule: Q04DX003 (ip), vehicle: carboxymethylcellulose (CMC) 106 % of control

CC(C)(C)SCCN1C(=O)C2C3CCC(O3)C2C1=O (centres undefined)
inactive: [7] 104 % of control | [8] 100 % of control | [9] 107 % of control

NNc1ccccc1-c1nc(N)nc(N)n1
inactive: dose: 9.38 mg/kg/injection, schedule: Q01DX001 (ip), vehicle: other 109 % of control | dose: 18.75 mg/kg/injection, schedule: Q01DX001 (ip), vehicle: other 112 % of control | dose: 37.5 mg/kg/injection, schedule: Q01DX001 (ip), vehicle: other 118 % of control
